Measurements as given in US20240050428A1 (Cullgen (Shanghai), Inc., priority 2020, published 2024).
Where two headings read alike, the source gives them in different places.

Key:
MV4;11 cells = assay: Cell viability assay (CellTiter-Glo) in MV4;11 cells, alone or with gilteritinib; type: cell-based; conditions: MV4;11 cells, three days, CellTiter-Glo, read-out: MV4
MOLM-13 cells = assay: Cell viability assay (CellTiter-Glo) in MOLM-13 cells, alone or with gilteritinib; type: cell-based; conditions: MOLM-13 cells, three days, CellTiter-Glo
[1] = Homo sapiens, MV4-11, 72 h, compound alone (without gilteritinib), 11 IC50
[2] = Homo sapiens, MV4-11, 72 h, compound with gilteritinib 10 nM, 11 IC50 gilteritinib
[3] = Homo sapiens, MOLM-13, 72 h, compound alone (without gilteritinib), read-out: MOLM-13 IC50
[4] = Homo sapiens, MOLM-13, 72 h, compound with gilteritinib 20 nM, read-out: MOLM-13 IC50 gilteritinib
[5] = Homo sapiens, 72 h, compound alone (without gilteritinib), 11 IC50
[6] = Homo sapiens, 72 h, compound with gilteritinib 10 nM, 11 IC50 gilteritinib
[7] = Homo sapiens, 72 h, compound alone (without gilteritinib), read-out: MOLM-13 IC50
[8] = Homo sapiens, 72 h, compound with gilteritinib 20 nM, read-out: MOLM-13 IC50 gilteritinib

O=C1CCC(N2C(=O)c3ccc(NC[C@H]4C[C@H](n5ccc(C6CC6)n5)C4)cc3C2=O)C(=O)N1 (stereo partly drawn) [GS-588, 5-(((trans-3-(3-Cyclopropyl-1H-pyrazol-1-yl)cyclobutyl)methyl)amino)-2-(2,6-dioxopiperidin-3-yl)isoindoline-1,3-dione]
IC50 (MV4;11 cells; [1]): > 1000 nM | IC50 (MV4;11 cells; [2]): > 1000 nM | IC50 (MOLM-13 cells; [3]): 10 to 100 nM | IC50 (MOLM-13 cells; [4]): 100 to 1000 nM

Cc1cccc(-c2cn([C@H]3C[C@H](CNc4ccc5c(c4)C(=O)N(C4CCC(=O)NC4=O)C5=O)C3)nc2C2CC2)n1 (stereo partly drawn) [GS-589, 5-(((trans-3-(3-Cyclopropyl-4-(6-methylpyridin-2-yl)-1H-pyrazol-1-yl)cyclobutyl)methyl)amino)-2-(2,6-dioxopiperidin-3-yl)isoindoline-1,3-dione]
IC50 (MV4;11 cells; [1]): 10 to 100 nM | IC50 (MV4;11 cells; [2]): < 10 nM | IC50 (MOLM-13 cells; [3]): 10 to 100 nM | IC50 (MOLM-13 cells; [4]): < 10 nM

O=C1CCC(N2C(=O)c3ccc(NC[C@H]4C[C@H](n5nccc5C5CC5)C4)cc3C2=O)C(=O)N1 (stereo partly drawn) [GS-590, 5-(((trans-3-(5-cyclopropyl-1H-pyrazol-1-yl)cyclobutyl)methyl)amino)-2-(2,6-dioxopiperidin-3-yl)isoindoline-1,3-dione]
IC50 (MV4;11 cells; [1]): > 1000 nM | IC50 (MV4;11 cells; [2]): 100 to 1000 nM | IC50 (MOLM-13 cells; [3]): < 10 nM | IC50 (MOLM-13 cells; [4]): 100 to 1000 nM

O=C1CCC(N2C(=O)c3ccc(NCCC[C@H]4C[C@H](n5ccc(C6CC6)n5)C4)cc3C2=O)C(=O)N1 (stereo partly drawn) [GS-591, 5-((3-(trans-3-(3-Cyclopropyl-1H-pyrazol-1-yl)cyclobutyl)propyl)amino)-2-(2,6-dioxopiperidin-3-yl)isoindoline-1,3-dione]
IC50 (MV4;11 cells; [1]): > 1000 nM | IC50 (MV4;11 cells; [2]): 100 to 1000 nM | IC50 (MOLM-13 cells; [3]): > 1000 nM | IC50 (MOLM-13 cells; [4]): 100 to 1000 nM

Cc1cccc(-c2cn([C@H]3C[C@H](CCCNc4ccc5c(c4)C(=O)N(C4CCC(=O)NC4=O)C5=O)C3)nc2C2CC2)n1 (stereo partly drawn) [GS-592, 5-((3-(trans-3-(3-Cyclopropyl-4-(6-methylpyridin-2-yl)-1H-pyrazol-1-yl)cyclobutyl)propyl)amino)-2-(2,6-dioxopiperidin-3-yl)isoindoline-1,3-dione]
IC50 (MV4;11 cells; [1]): 10 to 100 nM | IC50 (MV4;11 cells; [2]): < 10 nM | IC50 (MOLM-13 cells; [3]): 100 to 1000 nM | IC50 (MOLM-13 cells; [4]): 10 to 100 nM

O=C1CCC(N2C(=O)c3ccc(NCCC[C@H]4C[C@H](n5cc(-c6cnc7ccc(N8CCN(CC(F)(F)F)CC8)cc7n6)cn5)C4)cc3C2=O)C(=O)N1 (stereo partly drawn) [GS-593, 2-(2,6-Dioxopiperidin-3-yl)-5-((3-(trans-3-(4-(7-(4-(2,2,2-trifluoroethyl)piperazin-1-yl)quinoxalin-2-yl)-1H-pyrazol-1-yl)cyclobutyl)propyl)amino)isoindoline-1,3-dione]
IC50 (MV4;11 cells; compound with gilteritinib 10 nM, 11 IC50 gilteritinib): < 10 nM | IC50 (MOLM-13 cells; compound alone (without gilteritinib), read-out: MOLM-13 IC50): 100 to 1000 nM

CN1CC2CC1CN2c1ccc2ncc(-c3cn([C@H]4C[C@H](CCCNc5ccc6c(c5)C(=O)N(C5CCC(=O)NC5=O)C6=O)C4)nc3C3CC3)nc2c1 (stereo partly drawn) [GS-594, 5-((3-(trans-3-(3-Cyclopropyl-4-(7-((1R,4R)-5-methyl-2,5-diazabicyclo[2.2.1]heptan-2-yl)quinoxalin-2-yl)-1H-pyrazol-1-yl)cyclobutyl)propyl)amino)-2-(2,6-dioxopiperidin-3-yl)isoindoline-1,3-dione]
IC50 (MV4;11 cells; [1]): 10 to 100 nM | IC50 (MV4;11 cells; [2]): < 10 nM | IC50 (MOLM-13 cells; [3]): 100 to 1000 nM | IC50 (MOLM-13 cells; [4]): < 10 nM

O=C1CCC(N2C(=O)c3ccc(NC[C@H]4C[C@H](n5cc(-c6ccccn6)c(C6CC6)n5)C4)cc3C2=O)C(=O)N1 (stereo partly drawn) [GS-595, 5-(((trans-3-(3-Cyclopropyl-4-(pyridin-2-yl)-1H-pyrazol-1-yl)cyclobutyl)methyl)amino)-2-(2,6-dioxopiperidin-3-yl)isoindoline-1,3-dione]
IC50 (MV4;11 cells; [1]): 100 to 1000 nM | IC50 (MV4;11 cells; [2]): 10 to 100 nM | IC50 (MOLM-13 cells; [3]): 100 to 1000 nM | IC50 (MOLM-13 cells; [4]): 10 to 100 nM

O=C1CCC(N2C(=O)c3ccc(NC[C@H]4C[C@H](n5cc(-c6cnccn6)c(C6CC6)n5)C4)cc3C2=O)C(=O)N1 (stereo partly drawn) [GS-596, 5-(((trans-3-(3-Cyclopropyl-4-(pyrazin-2-yl)-1H-pyrazol-1-yl)cyclobutyl)methyl)amino)-2-(2,6-dioxopiperidin-3-yl)isoindoline-1,3-dione]
IC50 (MV4;11 cells; [1]): 100 to 1000 nM | IC50 (MV4;11 cells; [2]): 100 to 1000 nM | IC50 (MOLM-13 cells; [3]): > 1000 nM | IC50 (MOLM-13 cells; [4]): 100 to 1000 nM

O=C1CCC(N2C(=O)c3ccc(NC[C@H]4C[C@H](n5cc(-c6cccnn6)c(C6CC6)n5)C4)cc3C2=O)C(=O)N1 (stereo partly drawn) [GS-597, 5-(((trans-3-(3-Cyclopropyl-4-(pyridazin-3-yl)-1H-pyrazol-1-yl)cyclobutyl)methyl)amino)-2-(2,6-dioxopiperidin-3-yl)isoindoline-1,3-dione]
IC50 (MV4;11 cells; [1]): 10 to 100 nM | IC50 (MV4;11 cells; [2]): > 1000 nM | IC50 (MOLM-13 cells; [3]): > 1000 nM | IC50 (MOLM-13 cells; [4]): 100 to 1000 nM

O=C1CCC(N2C(=O)c3ccc(NC[C@H]4C[C@H](n5cc(-c6ccccc6)c(C6CC6)n5)C4)cc3C2=O)C(=O)N1 (stereo partly drawn) [GS-598, 5-(((trans-3-(3-Cyclopropyl-4-phenyl-1H-pyrazol-1-yl)cyclobutyl)methyl)amino)-2-(2,6-dioxopiperidin-3-yl)isoindoline-1,3-dione]
IC50 (MV4;11 cells; [5]): 10 to 100 nM | IC50 (MV4;11 cells; [6]): < 10 nM | IC50 (MOLM-13 cells; [7]): 100 to 1000 nM | IC50 (MOLM-13 cells; [8]): 10 to 100 nM

O=C1CCC(N2C(=O)c3ccc(NC[C@H]4C[C@H](n5cc(-c6ncccn6)c(C6CC6)n5)C4)cc3C2=O)C(=O)N1 (stereo partly drawn) [GS-599, 5-(((trans-3-(3-Cyclopropyl-4-(pyrimidin-2-yl)-1H-pyrazol-1-yl)cyclobutyl)methyl)amino)-2-(2,6-dioxopiperidin-3-yl)isoindoline-1,3-dione]
IC50 (MV4;11 cells; [1]): 100 to 1000 nM | IC50 (MV4;11 cells; [2]): 10 to 100 nM | IC50 (MOLM-13 cells; [3]): 100 to 1000 nM | IC50 (MOLM-13 cells; [4]): 100 to 1000 nM

CN1C(=O)CCC(N2C(=O)c3ccc(NCCC[C@H]4C[C@H](n5cc(-c6cnc7ccccc7n6)c(C6CC6)n5)C4)cc3C2=O)C1=O (stereo partly drawn) [GS-600, 5-((3-(trans-3-(3-Cyclopropyl-4-(quinoxalin-2-yl)-1H-pyrazol-1-yl)cyclobutyl)propyl)amino)-2-(1-methyl-2,6-dioxopiperidin-3-yl)isoindoline-1,3-dione]
IC50 (MV4;11 cells; [1]): > 1000 nM | IC50 (MV4;11 cells; [2]): > 1000 nM | IC50 (MOLM-13 cells; [3]): > 1000 nM | IC50 (MOLM-13 cells; [4]): > 1000 nM

O=C1CCC(N2C(=O)c3ccc(NC[C@H]4C[C@H](n5cc(-c6ccncn6)c(C6CC6)n5)C4)cc3C2=O)C(=O)N1 (stereo partly drawn) [GS-601, 5-(((trans-3-(3-Cyclopropyl-4-(pyrimidin-4-yl)-1H-pyrazol-1-yl)cyclobutyl)methyl)amino)-2-(2,6-dioxopiperidin-3-yl)isoindoline-1,3-dione]
IC50 (MV4;11 cells; [5]): 10 to 100 nM | IC50 (MV4;11 cells; [6]): > 1000 nM | IC50 (MOLM-13 cells; [7]): > 1000 nM | IC50 (MOLM-13 cells; [8]): 10 to 100 nM

Cc1cccnc1-c1cnn([C@H]2C[C@H](CCCNc3ccc4c(c3)C(=O)N(C3CCC(=O)NC3=O)C4=O)C2)c1 (stereo partly drawn) [GS-602, 2-(2,6-Dioxopiperidin-3-yl)-5-((3-(trans-3-(4-(3-methylpyridin-2-yl)-1H-pyrazol-1-yl)cyclobutyl)propyl)amino)isoindoline-1,3-dione]
IC50 (MV4;11 cells; [1]): 10 to 100 nM | IC50 (MV4;11 cells; [2]): < 10 nM | IC50 (MOLM-13 cells; [3]): 100 to 1000 nM | IC50 (MOLM-13 cells; [4]): 10 to 100 nM

Cc1ccnc(-c2cnn([C@H]3C[C@H](CCCNc4ccc5c(c4)C(=O)N(C4CCC(=O)NC4=O)C5=O)C3)c2)c1 (stereo partly drawn) [GS-603, 2-(2,6-Dioxopiperidin-3-yl)-5-((3-(trans-3-(4-(4-methylpyridin-2-yl)-1H-pyrazol-1-yl)cyclobutyl)propyl)amino)isoindoline-1,3-dione]
IC50 (MV4;11 cells; [1]): 10 to 100 nM | IC50 (MV4;11 cells; [2]): < 10 nM | IC50 (MOLM-13 cells; [3]): 100 to 1000 nM | IC50 (MOLM-13 cells; [4]): 10 to 100 nM
